Among the test systems are MDA-N; UO-31 renal; OVCAR-4 ovarian; HCC-2998 colon; NCI-H23 lung; SR leukemia; TK-10 renal; SNB-19 CNS; HCT-15 colon; SK-OV-3 ovarian; IGROV1 ovarian.
Common to all, as to assay: NCI anticancer screen, dose series, 48 h

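Interpolation was linear, between the two tested concentrations surrounding the appropriate level; five concentrations were tested over 48 hours in 96-well plates. TGI: concentration producing complete growth inhibition.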 Some results are limits rather than exact numbers.

As to `C=C(C)[C@@H]1CC[C@]2(C(=O)OC3OC(COC4OC(CO)C(OC5OC(C)C(O)C(O)C5O)C(O)C4O)C(O)C(O)C3O)CC[C@]3(C)[C@H](CC[C@@H]4[C@@]5(C)CC[C@H](O)[C@@](C)(CO)[C@@H]5CC[C@]43C)[C@@H]12` (some centres not stated), the TGI with MDA-N is above 10 µM; in the test on UO-31 renal, above 10 µM; with OVCAR-4 ovarian, above 10 µM; in the test on HCC-2998 colon, above 6.91 µM; with NCI-H23 lung, above 5.57 µM; in the test on SR leukemia, above 4.48 µM. Further, the TGI was above 10 µM in the test on TK-10 renal; above 10 µM in the test on SNB-19 CNS; above 9.68 µM with HCT-15 colon; above 8.62 µM in the test on SK-OV-3 ovarian; above 10 µM with IGROV1 ovarian.
For the compound `CC(C)(C)C(=O)O[C@H]1C=C[C@@H](O)[C@@H]2[C@H]1[C@@H]1C=C[C@H]2C1`, the TGI in the test on MDA-N is above 100 µM; in the test with UO-31 renal, above 100 µM; in the test on OVCAR-4 ovarian, 60 µM; in the test on HCC-2998 colon it was 32.4 µM; with NCI-H23 lung it was 48 µM; with SR leukemia it was above 100 µM. The TGI is above 100 µM in the test with TK-10 renal; above 100 µM in the test with SNB-19 CNS; 83.5 µM in the test on HCT-15 colon; above 100 µM in the test on SK-OV-3 ovarian; above 100 µM in the test on IGROV1 ovarian.

These data come from PubChem BioAssay (NCI).
